# Test results from patent US10195156B2, “Compounds and compositions for intracellular delivery of agents” (ModernaTX, Inc., priority 2015, dated 2019).
# Legend:
# IP-10 = assay: Cytokine production induced by sample formulations: IP-10; type: in vivo; conditions: mice, i.v., 0.5 mpk, 6 hours, in pg/mL (unit assumed)
# Excerpt: (§1) The introduction of foreign material into a mammalian body induces an innate immune response that promotes cytokine production. Such immune responses to, for example, nanoparticle compositions including therapeutic and/or prophylactic agents, are undesirable. The induction of certain cytokines is thus measured to evaluate the […] of nanoparticle compositions. The concentrations of various cytokines in mice upon intravenous administration of nanoparticle compositions presented in Tables 1, 1a, 17-1, 19-1, 20-1 and 21-1 at a dosage of 0.5 mpk was measured at 6 hours. The standard MC3 formulation and a PBS control were also tested.
# [1] = system: luciferase (Luc) mRNA expression; assay: Expression of Luc induced by sample formulations, whole-body bioluminescence after intravenous administration; type: in vivo; conditions: mice, i.v., 0.5 mg/kg
# Protocol: In order to monitor how effectively various nanoparticle compositions deliver therapeutic and/or prophylactic agents to targeted cells, different nanoparticle compositions including a particular therapeutic and/or prophylactic agent (for example, a modified or naturally occurring RNA such as an mRNA) are prepared and administered to rodent populations. Mice are intravenously, intramuscularly, intraarterially, or intratumorally administered a single dose including a nanoparticle composition with a formulation such as those provided in Table 1. In some instances, mice may be made to inhale doses. Dose sizes may range from 0.001 mg/kg to 10 mg/kg, where 10 mg/kg describes a dose including 10 mg of a therapeutic and/or prophylactic agent in a nanoparticle composition for each 1 kg of body mass of the mouse. A control composition including PBS may also be employed.
# Upon administration of nanoparticle compositions to mice, dose delivery profiles, dose responses, and toxicity of particular formulations and doses thereof can be measured by enzyme-linked immunosorbent assays (ELISA), bioluminescent imaging, or other methods. For nanoparticle compositions including mRNA, time courses of protein expression can also be evaluated. Samples collected from the rodents for evaluation may include blood, sera, and tissue (for example, muscle tissue from the site of an intramuscular injection and internal tissue); sample collection may involve sacrifice of the animals.
# The efficacy of the nanoparticle compositions presented in Tables 1, 1a, 17-1, 19-1, 20-1 and 21-1 was evaluated with a bioluminescence study. Formulations were administered intravenously to mice (n=6) at a dosage of 0.5 mg/kg (mpk) and bioluminescence measured at 3, 6, and 24 hour time points. The standard MC3 formulation and a PBS control were evaluated for comparison.
# [2] = pKa of nanoparticle compositions; type: physicochemical
# [3] = Encapsulation efficiency of RNA (QUANT-IT RIBOGREEN RNA assay); type: physicochemical; conditions: for encapsulation efficiency, rank within the named table (in words): comparison amongst compositions
# Protocol: For nanoparticle compositions including an RNA, a QUANT-IT™ RIBOGREEN® RNA assay (Invitrogen Corporation Carlsbad, Calif.) can be used to evaluate the encapsulation of an RNA by the nanoparticle composition. The samples are diluted to a concentration of approximately 5 μg/mL in a TE buffer solution (10 mM Tris-HCl, 1 mM EDTA, pH 7.5). 50 μL of the diluted samples are transferred to a polystyrene 96 well plate and either 50 μL of TE buffer or 50 μL of a 2% Triton X-100 solution is added to the wells. The plate is incubated at a temperature of 37° C. for 15 minutes. The RIBOGREEN® reagent is diluted 1:100 in TE buffer, and 100 μL of this solution is added to each well. The fluorescence intensity can be measured using a fluorescence plate reader (Wallac Victor 1420 Multilablel Counter; Perkin Elmer, Waltham, Mass.) at an excitation wavelength of, for example, about 480 nm and an emission wavelength of, for example, about 520 nm. The fluorescence values of the reagent blank are subtracted from that of each of the samples and the percentage of free RNA is determined by dividing the fluorescence intensity of the intact sample (without addition of Triton X-100) by the fluorescence value of the disrupted sample (caused by the addition of Triton X-100).
# IL-6 = assay: Cytokine production induced by sample formulations: IL-6; type: in vivo; conditions: mice, i.v., 0.5 mpk, 6 hours; for IL-6: Table 4, in pg/mL (unit assumed)
# Excerpt: as §1
# [4] = Particle size and polydispersity index of nanoparticle compositions (Zetasizer Nano ZS); type: physicochemical
# Protocol: A Zetasizer Nano ZS (Malvern Instruments Ltd, Malvern, Worcestershire, UK) can be used to determine the particle size, the polydispersity index (PDI) and the zeta potential of the nanoparticle compositions in 1×PBS in determining particle size and 15 mM PBS in determining zeta potential.
# [5] = system: modified luciferase expression; assay: Expression of Luc in different organs (liver, lung, spleen, femur) 6 hours after intravenous administration; type: in vivo; conditions: i.v., 0.5 mpk
# Protocol: The efficacy of the nanoparticle compositions presented in Tables 1, 1a, 17-1, 19-1, 20-1 and 21-1 was further evaluated by measuring the expression of modified luciferase in the liver, lung, spleen, and femur upon administration of a given composition. Formulations were administered intravenously to mice (n=3) at a dosage of 0.5 mpk and bioluminescence measured after 6 hours. The standard MC3 formulation and a PBS control were also tested.
# [6] = Table 1, rows without footnote mark
# [7] = Table 1, rows without footnote mark (lipid:DOPE:cholesterol:PEG-DMG 40:20:38.5:1.5, Luc mRNA; MC3 standard formulation)
# [8] = Table 20-1, rows without footnote mark
# [9] = Table 1, * lipid:DSPC:Chol:PEG-DMG 50:10:38.5:1.5
# [10] = Table 1, * formulated with lipid:DSPC:Chol:PEG-DMG 50:10:38.5:1.5
smiles,measurement,setting,value
"CCCCC/C=C\CCCCCN(CCCCC/C=C\CCCCC)CCN1CCN(CCN(CCCCCCCCCCCC)CCN(CCCCCCCCCCCC)CCCCCCCCCCCC)CC1 [Compound 25, N^1-(2-(4-(2-(Di((Z)-dodec-6-en-1-yl)amino)ethyl)piperazin-1-yl)ethyl)-N^1,N^2,N^2-tridodecylethane-1,2-diamine]",IP-10,IP-10; Table 4,1823
same,Total Flux 3 hours,[1]; Table 2,1.06E+10
same,Total Flux 6 hours,[1]; Table 2,1.08E+10
same,Total Flux 24 hours,[1]; Table 2,2.72E+08
same,pKa,[2]; [6],6.20
same,EE (%),[3]; [6],97.0%
same,IL-6,IL-6,131
same,PDI,[4]; [6],0.186
same,Size (nm),[4]; [7],90.0 nm
same,Total Flux Liver,"[5]; Table 3, mice",2.68E+09
same,Total Flux Lung,"[5]; Table 3, mice",5.88E+06
same,Total Flux Spleen,"[5]; Table 3, mice, spleen",6.00E+06
"CCCCCCCCCCCCN(CCCCCCCCCCCC)CCNCCO [Compound 20-19, 2-((2-(Didodecylamino)ethyl)amino)ethan-1-ol]",IP-10,"IP-10; Table 20-4, formula (20-I)",127.2
same,Total Flux 3 hours,[1]; Table 20-2,5.37E+05
same,Total Flux 6 hours,[1]; Table 20-2,7.60E+05
same,Total Flux 24 hours,[1]; Table 20-2,6.08E+05
same,pKa,[2]; [8],4.73
same,EE (%),[3]; [8],99.5%
same,"encapsulation efficiency, rank within the named table (in words)",[3],highest
same,PDI,[4]; [8],0.145
same,Size (nm),[4]; [8],74.9 nm
same,Total Flux Liver,"[5]; Table 20-3, mice",3.80E+05
same,Total Flux Lung,"[5]; Table 20-3, mice",1.96E+04
same,Total Flux Spleen,"[5]; Table 20-3, mice, spleen",2.74E+04
"CCCCCCCCCCCCN(CCCCCCCCCCCC)CCN(CCCCCCCCCCCC)CCN1CCNCC1 [Compound 37, N^1,N^1,N^2-Tridodecyl-N^2-(2-(piperazin-1-yl)ethyl)ethane-1,2-diamine]",IP-10,IP-10; Table 4,198
same,Total Flux 3 hours,[1]; Table 2,1.19E+07
same,Total Flux 6 hours,[1]; Table 2,6.66E+06
same,Total Flux 24 hours,[1]; Table 2,9.38E+05
same,"total flux after 24 hours, rank within the named table (in words)",[1],lowest flux after 24 hours
same,pKa,[2]; [9],6.45
same,EE (%),[3]; [9],99.9%
same,"encapsulation efficiency, rank within the named table (in words)",[3],highest
same,Size (nm),[4]; [10],86.6 nm
same,PDI,[4]; [9],0.107
same,Total Flux Liver,"[5]; Table 3, mice",1.92E+06
same,Total Flux Lung,"[5]; Table 3, mice",6.90E+05
same,Total Flux Spleen,"[5]; Table 3, mice, spleen",9.75E+05
"CCCCCCCCCCCCN(CCCCCCCCCCCC)CCN1CCN(C(=O)CN(CCCCCCCCCCCC)CCN(CCCCCCCCCCCC)CCCCCCCCCCCC)CC1 [Compound 2, 2-((2-(Didodecylamino)ethyl)(dodecyl)amino)-1-(4-(2-(didodecylamino)ethyl)piperazin-1-yl)ethan-1-one]",IP-10,IP-10; Table 4,3365
same,Total Flux 3 hours,[1]; Table 2,6.01E+09
same,Total Flux 6 hours,[1]; Table 2,3.23E+09
same,Total Flux 24 hours,[1]; Table 2,3.23E+09
same,pKa,[2]; [9],6.39
same,EE (%),[3]; [9],96%
same,Size (nm),[4]; [10],94.7 nm
same,PDI,[4]; [9],0.108
same,Total Flux Liver,"[5]; Table 3, mice",3.33E+08
same,Total Flux Lung,"[5]; Table 3, mice",4.76E+05
same,Total Flux Spleen,"[5]; Table 3, mice, spleen",1.14E+07
"CCCCCCCC/C=C\CCCCCCCCN(CCO)CCCCCCCC/C=C\CCCCCCCC [Compound 17-8, 2-(Di((Z)-octadec-9-en-1-yl)amino)ethan-1-ol]",IP-10,IP-10; Table 17-4,135
same,Total Flux 3 hours,[1]; Table 17-2,1.02E+09
same,Total Flux 6 hours,[1]; Table 17-2,5.94E+08
same,Total Flux 24 hours,[1]; Table 17-2,3.79E+07
same,"total flux / Luc expression, rank within the named table (in words)",[1]; each time point,"substantially higher flux than compositions including Compounds 17-2, 17-3, and 17-7"
same,pKa,[2]; Table 17-1,6.16
same,EE (%),[3]; Table 17-1,96.9%
same,"encapsulation efficiency, rank within the named table (in words)",[3],comparable to that for MC3
same,PDI,[4]; Table 17-1,0.20
same,Size (nm),[4]; Table 17-1,86.4 nm
same,Total Flux Liver,"[5]; Table 17-3, mice",2.27E+08
same,Total Flux Lung,"[5]; Table 17-3, mice",6.11E+05
same,Total Flux Spleen,"[5]; Table 17-3, mice, spleen",4.25E+06
same,"total flux in the liver, rank within the named table (in words)",[5]; mice,somewhat comparable to those including MC3
same,"total flux in the spleen, rank within the named table (in words)","[5]; mice, spleen",highest
"CCCCCCCCCCCCN(CCCCCCCCCCCC)CCN(CCCCCCCCCCCC)CCN1CCN(C(=O)CN(CCCCCCCCCCCC)CCCCCCCCCCCC)CC1 [Compound 3, 2-(Didodecylamino)-1-(4-(2-((2-(didodecylamino)ethyl)(dodecyl)amino)ethyl)piperazin-1-yl)ethan-1-one]",IP-10,IP-10; Table 4,341
same,Total Flux 3 hours,[1]; Table 2,3.75E+08
same,Total Flux 6 hours,[1]; Table 2,1.12E+09
same,EE (%),[3]; [6],92.5%
same,IL-6,IL-6,7
same,"IL-6 induction, rank within the named table (in words)",IL-6,lowest IL-6 expression
same,PDI,[4]; [6],0.044
same,Size (nm),[4]; [7],73.5 nm
same,Total Flux Liver,"[5]; Table 3, mice",1.36E+08
same,Total Flux Lung,"[5]; Table 3, mice",8.47E+05
same,Total Flux Spleen,"[5]; Table 3, mice, spleen",9.51E+05
"CCCCCCCCCN(CCO)CCN(CCCCCCCCC)CCCCCCCCC [Compound 20-16, 2-((2-(Dinonylamino)ethyl)(nonyl)amino)ethan-1-ol]",IP-10,"IP-10; Table 20-4, formula (20-I)",395.7
same,Total Flux 3 hours,[1]; Table 20-2,7.88E+05
same,Total Flux 6 hours,[1]; Table 20-2,6.25E+05
same,Total Flux 24 hours,[1]; Table 20-2,2.16E+05
same,"total flux after 24 hours, rank within the named table (in words)",[1],lowest
same,pKa,[2]; [8],6.62
same,EE (%),[3]; [8],97.2%
same,PDI,[4]; [8],0.225
same,Size (nm),[4]; [8],73.5 nm
same,Total Flux Liver,"[5]; Table 20-3, mice",9.55E+04
same,Total Flux Lung,"[5]; Table 20-3, mice",1.44E+04
same,Total Flux Spleen,"[5]; Table 20-3, mice, spleen",6.57E+04
same,"total flux in the liver, rank within the named table (in words)",[5]; mice,lowest
"CCCCC/C=C\C/C=C\CCCCCCCCC1(CCCCCCCC/C=C\C/C=C\CCCCC)CC1CN(C)C (centres unmarked) [Compound 21-1, 1-(2,2-Di((9Z,12Z)-octadeca-9,12-dien-1-yl)cyclopropyl)-N,N-dimethylmethanamine]",Total Flux 3 hours,[1]; Table 21-2,3.66E+09
same,Total Flux 6 hours,[1]; Table 21-2,4.19E+09
same,Total Flux 24 hours,[1]; Table 21-2,4.19E+09
same,pKa,[2]; Table 21-1,6.07
same,EE (%),[3]; Table 21-1,98.4%
same,PDI,[4]; Table 21-1,0.237
same,Size (nm),[4]; Table 21-1,119.9 nm
same,"particle size, rank within the named table (in words)",[4]; comparison amongst compositions,largest particles
same,Total Flux Liver,"[5]; Table 21-3, mice",3.62E+08
same,Total Flux Lung,"[5]; Table 21-3, mice",5.44E+05
same,Total Flux Spleen,"[5]; Table 21-3, mice, spleen",3.27E+07
